Results published in US20080199606A1, “Composition for the Impregnation of Fibers, Fabrics and Nettings Imparting a Protective Activity Against Pests” (BASF Aktiengesellschaft, priority 2005, published 2008).

System: mosquitoes
Assay: WHO cone test of treated, washed polyester nettings (knockdown, 24-hour mortality)
Assay type: in vivo
Conditions: polyester nettings treated with insecticide composition comprising a binder of example A and the N-arylhydrazine derivative; after Montpellier washing; 3 min cone exposure
Procedure: The long-lasting insecticidal treatment was performed with aqueous dispersions according to examples A1-A17 on commercially available white polyester netting material (fiber titer 75 denier, 156 mesh, weight 28-32 g/m^2) without prior washing. The aqueous treatment baths were prepared by mixing the aqueous dispersions with emulsions of N-ethyl-2,2-dimethylpropionamide-2-(2,6-dichloro-α,α,α-trifluoro-p-tolyl)-hydrazone and N-ethyl-2,2-dichloro-1-methylcyclo-propanecarboxamide-2-(2,6-dichloro-α,α,α-tri-fluoro-p-tolyl)hydrazone, respectively, setting pH with buffer solutions and adding a fixative (if needed). The concentrations of the treatment baths were adjusted according to the liquor uptake possible (LU between 60 and 100%). The treatment baths were applied by using a padder-stenter equipment on a laboratory scale (Mathis AG, Switzerland). The netting material is fully immersed into the treatment bath and excess liquor is removed by passing it through cylinders which move in counter-direction. By choosing a defined distance between these cylinders (and thus a defined pressure) the liquor uptake can be controlled. The liquor uptake is measured by weighing an impregnated piece of netting and subtracting the weight of the dry, untreated netting and is given as % weight of liquor on weight of netting. […]

| SMILES | activity (knockdown, mortality) after washing of the nettings |
| --- | --- |
| CCN/C(=N\Nc1c(Cl)cc(C(F)(F)F)cc1Cl)C(C)(C)C [Ia-I, N-ethyl-2,2-dimethylpropionamide-2-(2,6-dichloro-α,α,α-trifluoro-p-tolyl)-hydrazone] | show an activity |
| CCN/C(=N\Nc1c(Cl)cc(C(F)(F)F)cc1Cl)C1(C)CC1(Cl)Cl (stereo not drawn) [Ia-II, N-Ethyl-2,2-dichloro-1-methylcyclo-propanecarboxamide-2-(2,6-dichloro-α,α,α-tri-fluoro-p-tolyl)hydrazone] | show an activity |
